Assay results as given in ChEMBL document CHEMBL3112503, “New class of azaheptapyridine FPT inhibitors as potential cancer therapy agents” (Bioorg Med Chem Lett, 2014).
pIC50: −log10 of the molar value. The source made the active and inactive calls. No cut-off for these calls is given here.

Experiments:
NIH-H = test: Inhibition of inhibit anchorage-independent growth of […] NIH-H cells in soft agar by colony forming assay; type: functional, cell-based
[1] = biological target: Protein farnesyltransferase (Homo sapiens, UniProt P49354+P49356); test: Inhibition of FTase (unknown origin) assessed as transfer of [H3]farnesyl from [H3]farnesyl pyrophosphate to trichloroacetic acid-precipitable HaRas-CVLS; type: protein-complex assay
Mus musculus [2] = test: Antitumor activity in wap-ras transgenic mouse assessed as tumor growth inhibition and tumor regression administered bid for 4 weeks; type: functional, organism-based
Cytochrome P450 3A4 = Cytochrome P450 3A4 (Homo sapiens, UniProt P08684); test: Inhibition of CYP3A4 (unknown origin); type: ADME
Mus musculus [3] = test: Toxicity in wap-ras transgenic mouse assessed as change in body weight at 3 to 40 mg/kg bid for 4 weeks; type: organism-based; set-up: dose 3-40 mg/kg; conditions: in vivo, 672 h
Mus musculus [4] = test: Antitumor activity in wap-ras transgenic mouse assessed as tumor regression at 25 to 40 mg/kg bid for 4 weeks; type: functional, organism-based
Mus musculus [5] = test: Antitumor activity in wap-ras transgenic mouse assessed as tumor stasis at 10 mg/kg bid for 4 weeks; type: functional, organism-based; set-up: dose 10 mg/kg
[6] = Cmax in monkey at 25 mg/kg, po; type: ADME, organism-based, Macaca mulatta; set-up: dose 25 mg/kg, route oral; conditions: rhesus monkey, in vivo
Mus musculus [7] = test: Antitumor activity in wap-ras transgenic mouse assessed as tumor growth inhibition at 3 mg/kg bid for 4 weeks; type: functional, organism-based; set-up: dose 3 mg/kg
[8] = AUC in monkey at 25 mg/kg, po; type: ADME, organism-based, Macaca mulatta; set-up: dose 25 mg/kg, route oral; conditions: rhesus monkey, plasma
[9] = AUC in dog at 25 mg/kg, po; type: ADME, organism-based, Canis lupus familiaris; set-up: dose 25 mg/kg, route oral; conditions: plasma
[10] = Cmax in dog at 25 mg/kg, po; type: ADME, organism-based, Canis lupus familiaris; set-up: dose 25 mg/kg, route oral; conditions: in vivo
[11] = Cmax in mouse at 25 mg/kg, po; type: ADME, organism-based; set-up: dose 25 mg/kg, route oral; conditions: in vivo
[12] = AUC in mouse at 25 mg/kg, po; type: ADME, organism-based; set-up: dose 25 mg/kg, route oral; conditions: plasma
[13] = Cmax in rat at 10 mg/kg, po; type: ADME, organism-based; set-up: dose 10 mg/kg, route oral; conditions: in vivo
[14] = AUC in rat at 10 mg/kg, po; type: ADME, organism-based; set-up: dose 10 mg/kg, route oral; conditions: plasma
[15] = Oral bioavailability in monkey at 5 mg/kg; type: ADME, organism-based, Macaca mulatta; conditions: rhesus monkey, in vivo
[16] = Oral bioavailability in dog at 5 mg/kg; type: ADME, organism-based, Canis lupus familiaris; conditions: in vivo
[17] = Oral bioavailability in mouse at 25 mg/kg; type: ADME, organism-based; conditions: in vivo
[18] = Oral bioavailability in rat at 10 mg/kg; type: ADME, organism-based; conditions: in vivo
[19] = AUC (0 to 6 hrs) in rat at 10 mg/kg; type: ADME, organism-based; set-up: time < 6 hr, dose 10 mg/kg; conditions: plasma
[20] = Ratio of IC50 for […] NIH-H cells to IC50 for FTase (unknown origin)

Cytochrome P450 3A4, sequence (P08684 whole entry): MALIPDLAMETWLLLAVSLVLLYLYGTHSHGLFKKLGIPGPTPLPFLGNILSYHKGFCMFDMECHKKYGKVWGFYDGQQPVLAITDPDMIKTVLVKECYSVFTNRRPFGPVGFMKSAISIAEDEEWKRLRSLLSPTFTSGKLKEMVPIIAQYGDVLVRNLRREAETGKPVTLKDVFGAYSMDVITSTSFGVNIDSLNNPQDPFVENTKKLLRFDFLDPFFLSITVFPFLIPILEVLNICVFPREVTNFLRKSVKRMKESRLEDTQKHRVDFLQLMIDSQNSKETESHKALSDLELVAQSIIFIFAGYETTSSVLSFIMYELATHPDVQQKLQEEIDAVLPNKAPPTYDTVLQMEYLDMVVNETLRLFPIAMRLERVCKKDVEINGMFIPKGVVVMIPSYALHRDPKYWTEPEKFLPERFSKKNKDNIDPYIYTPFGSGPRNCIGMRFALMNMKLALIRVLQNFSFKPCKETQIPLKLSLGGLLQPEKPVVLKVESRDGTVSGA

Row | pIC50 [1] | Structure (SMILES) | pIC50 (NIH-H) | also measured
1 | 9.22 | Cn1cncc1[C@](C)(O)C1=Cc2cccnc2[C@@H](N2CCN(C(=O)OC3CCCC3)CC2)c2ccc(Cl)cc21 | 7.49 | 
2 | 10.00 | Cn1cncc1[C@@](C)(O)C1=Cc2cccnc2[C@@H](N2CCN(C(N)=O)CC2)c2ccc(Cl)cc21 | < 7.00 | 
3 | 7.92 | Cn1cncc1[C@@H](O)C1=Cc2cccnc2[C@@H](N2CCN(C(=O)OC(C)(C)C)CC2)c2ccc(Cl)cc21 |  | 
4 | 8.49 | Cn1cncc1C(=O)[C@@]12C[C@@H]1c1cccnc1[C@@H](N1CCN(C(=O)OC(C)(C)C)CC1)c1ccc(Cl)cc12 | 8.10 | 
5 | 8.85 | Cn1cncc1[C@@](C)(O)C1=Cc2cccnc2[C@@H](N2CCN(C(=O)OC(C)(C)C)CC2)c2ccc(Cl)cc21 | 8.89 | Activity (Mus musculus [2]): Dose-dependent effect; pIC50 (Cytochrome P450 3A4): 6.52; Activity (Mus musculus [3]): Non-toxic; Activity (Mus musculus [4]): Active; Activity (Mus musculus [5]): Active; Cmax [6]: 700 nM; TGI (Mus musculus [7]): Active; AUC [8]: 3.2 µM·h; AUC [9]: 1.8 µM·h; Cmax [10]: 600 nM; Cmax [11]: 18000 nM; AUC [12]: 82 µM·h; Cmax [13]: 1500 nM; AUC [14]: 8.4 µM·h; bioavailability [15]: 34%; bioavailability [16]: 34%; bioavailability [17]: 34%; bioavailability [18]: 34%
6 | 9.10 | Cn1cncc1[C@@](C)(O)C1=Cc2cccnc2[C@@H](N2CCN(C(=O)Nc3ccc(C#N)cc3)CC2)c2ccc(Cl)cc21 | 8.70 | 
7 | 8.74 | Cn1cncc1C(C)(O)C1=Cc2cccnc2[C@@H](N2CCN(C(=O)OC(C)(C)C)CC2)c2ccc(Cl)cc21 (mixture of isomers) | 8.00 | 
8 | < 7.74 | Cn1cncc1C(=O)C1=Cc2cccnc2[C@@H](N2CCN(C(=O)OC(C)(C)C)CC2)c2ccc(Cl)cc21 |  | 
9 | < 7.74 | Cn1cncc1C(C)(O)[C@]12C[C@H]1c1cccnc1[C@@H](N1CCN(C(=O)OC(C)(C)C)CC1)c1ccc(Cl)cc12 (stereo partly specified) | < 7.00 | 
10 | < 7.70 | Cn1cncc1[C@](C)(O)C1=Cc2cccnc2[C@@H](N2CCN(C(N)=O)CC2)c2ccc(Cl)cc21 | < 7.00 | 
11 | 8.59 | Cn1cncc1[C@](C)(O)C1=Cc2cccnc2[C@@H](N2CCN(C(=O)OC(C)(C)C)CC2)c2ccc(Cl)cc21 | 7.52 | AUC(0-t) at 6 h [19]: 3.1 µM·h
12 | 9.22 | CC(C)OC(=O)N1CCN([C@H]2c3ccc(Cl)cc3C([C@@](C)(O)c3cncn3C)=Cc3cccnc32)CC1 | 8.00 | 
13 | 9.70 | CC(C)OC(=O)N1CCN([C@H]2c3ccc(Cl)cc3C([C@](C)(O)c3cncn3C)=Cc3cccnc32)CC1 | 8.70 | 
14 | 8.26 | Cn1cncc1[C@@](C)(O)C1=Cc2cccnc2[C@@H](N2CCN(C(=O)OC3(C)CCCCC3)CC2)c2ccc(Cl)cc21 | 8.70 | 
15 | 9.05 | Cn1cncc1[C@@](C)(O)C1=Cc2cccnc2[C@@H](N2CCN(C(=O)NC(C)(C)C)CC2)c2ccc(Cl)cc21 | 8.30 | 

Second part, the compound before the results:

Row | Structure (SMILES) | pIC50 [1] | pIC50 (NIH-H) | also measured
16 | Cn1cncc1[C@](C)(O)C1=Cc2cccnc2[C@@H](N2CCN(C(=O)OC3(C)CCCCC3)CC2)c2ccc(Cl)cc21 |  | 7.35 | 
17 | Cn1cncc1[C@@](C)(O)C1=Cc2cccnc2[C@@H](N2CCN(C(=O)NC3CCCCC3)CC2)c2ccc(Cl)cc21 | 10.00 | 9.05 | 
18 | Cn1cncc1[C@](C)(O)C1=Cc2cccnc2[C@@H](N2CCN(C(=O)NC3CCCCC3)CC2)c2ccc(Cl)cc21 | 9.40 | 8.77 | 
19 | Cn1cncc1[C@@](C)(O)C1=Cc2cccnc2[C@@H](N2CCN(C(=O)OC3CCCC3)CC2)c2ccc(Cl)cc21 | 9.22 | 8.70 | 
20 | Cn1cncc1[C@](C)(O)C1=Cc2cccnc2[C@@H](N2CCN(C(=O)OC3CCCCC3)CC2)c2ccc(Cl)cc21 | 8.85 | 8.21 | 
21 | Cn1cncc1[C@](C)(O)C1=Cc2cccnc2[C@@H](N2CCN(C(=O)Nc3ccc(C#N)cc3)CC2)c2ccc(Cl)cc21 | 8.74 | 8.40 | 
22 | Cn1cncc1[C@](C)(O)C1=Cc2cccnc2[C@@H](N2CCN(C(=O)NC(C)(C)C)CC2)c2ccc(Cl)cc21 | 9.15 | 7.43 | 
23 | Cn1cncc1C(=O)[C@]12C[C@H]1c1cccnc1[C@@H](N1CCN(C(=O)OC(C)(C)C)CC1)c1ccc(Cl)cc12 | 8.49 | 8.22 | 
24 | Cn1cncc1[C@@](C)(O)C1=Cc2cccnc2[C@@H](N2CCN(C(=O)OC3CCCCC3)CC2)c2ccc(Cl)cc21 | 8.77 | 8.46 | 
25 | Cn1cncc1[C@H](O)C1=Cc2cccnc2[C@@H](N2CCN(C(=O)OC(C)(C)C)CC2)c2ccc(Cl)cc21 | 9.52 | 9.30 | 
26 | CCC(O)(C1=Cc2cccnc2[C@@H](N2CCN(C(=O)OC(C)(C)C)CC2)c2ccc(Cl)cc21)c1cncn1C (mixture of isomers) | 8.30 | 7.30 | 
27 | Cn1cncc1C(C)(O)[C@@]12C[C@@H]1c1cccnc1[C@@H](N1CCN(C(=O)OC(C)(C)C)CC1)c1ccc(Cl)cc12 (stereo partly specified) | 8.72 | 7.22 | Ratio IC50 [20]: >30
